Measurements: patent US20200354331A1, “ICARIIN DERIVATIVES” (H. LEE MOFFITT CANCER CENTER AND RESEARCH INSTITUTE, INC., priority 2014, published 2020)

Legend:
PBMC = experiment: Apoptosis rates of ICT in cell lines; type: cell-based
IL-10 and TGFb = experiment: Expression of IL-10 and TGFb on LPS-treated PBMC (Q-PCR); type: cell-based; conditions: 48 hours, 20 μM
Description: The relative expression of IL-10 and TGFb by Q-PCR are shown in FIGS. 19A and 19B, respectively. Healthy PBMC were cultured for 48 hours with 20 μM ICT and the gene expression measured by the DDCt method. The experimental control is PBMC treated with DMSO for 48 hours and the internal control was GAPDH. Error bars indicate the SEM of three separate donors/experiments.

[1] = system: NK cells and lymphokine-activated killer cells; conditions: 0.1 to 1.0 microgram/ml; tumor patients and healthy donors; cited from earlier work

Q: Which results are given for `COc1ccc(-c2oc3c(CCC(C)(C)O)c(O)cc(O)c3c(=O)c2O)cc1` [ICT, 3,5,7-trihydroxy-4′-methoxy-8-(3-hydroxy-3-methylbutyl)-flavone]?
A: Apoptosis rates (PBMC; 5 μM): 4.6%; Apoptosis rates (PBMC; 10 μM): 5.5%; Apoptosis rates (PBMC; 20 μM): 6.9%; expression of IL-10 and TGFb on LPS-treated PBMC (IL-10 and TGFb): down-regulate the expression of the suppressive cytokine IL-10 and TGFb on LPS-treated PBMC

Q: Which “NK cell activity and LAK activity” value [1] does the source give for `COc1ccc(-c2oc3c(CC=C(C)C)c(O[C@@H]4O[C@H](CO)[C@@H](O)[C@H](O)[C@H]4O)cc(O)c3c(=O)c2O[C@@H]2O[C@@H](C)[C@H](O)[C@@H](O)[C@H]2O)cc1` [ICA, Icariin] here?
A: increase NK cell activity and lymphokine-activated killer cell (LAK) activity
